Experimental data published in patent US8106033B2, “Composition and methods for the treatment of proliferative diseases” (priority 2005, dated 2012).
Entries after “also recorded” stand apart in the source; their conditions may differ. Read-outs that look alike come from different tables or passages of the source.

Experiments:
[1] = tested on: BEL-7402 tumor cells (human hepatoma cell line); assay type: in vivo; details: BEL-7402 xenograft, IP every other day, Compound A 200 mg/kg, oxaliplatin 5 mg/kg, alone or combined
Protocol: Twenty female athymic nude mice (NCR-nu/nu, Taconic) were injected subcutaneously with 1×10^7 BEL-7402 tumor cells (human hepatoma cell line). The tumors produced by the tumor cell injections were allowed to grow for a period of 10-14 days until the tumors reached a size from 200 to 250 mm^3. The mice were then divided into four test groups (N=5) which were treated every other day by intraperitoneal (IP) injections of: (a) (E)-2-(5-((2,4,6-trimethoxystyrylsulfonyl)methyl)-2-methoxyphenylamino)acetic acid sodium salt (Compound A) (200 mg/kg) dissolved in PBS; (b) oxaliplatin (5 mg/kg); (c) a combination of (E)-2-(5-((2,4,6-trimethoxystyrylsulfonyl)methyl)-2-methoxyphenylamino)acetic acid sodium salt (200 mg/kg) dissolved in PBS and oxaliplatin (5 mg/kg), or (d) PBS vehicle containing no drug. […] Body weights are plotted in FIG. 1(b) as the mean of the measured weights of all the animals in each dose group. Tumor volume was determined by measuring each tumor in two dimensions using traceable digital Vernier calipers (Fisher Scientific International Inc., Liberty Lane, Hampton, N.H. 03842). The tumor volume was calculated for each tumor using the equation: V=L×(S^2)π/6, wherein L is the longer, and S is the shorter of the two measured dimensions. […]

[2] = tested on: DU145 tumor cells (human prostate cancer cell line); assay: DU145 tumor xenograft in nude mice (Example 7); assay type: in vivo; details: for effect on tumor growth (mean tumor volume): IP every other day, Compound A 200 mg/kg, oxaliplatin 5 mg/kg, alone or combined
Protocol: At this time, animals were divided into four groups (N=5) and were treated every other day by IP injections with: […] (b) oxaliplatin (5.0 mg/kg); […] All animals were examined for signs of toxicity. Tumor volumes and body weights were determined weekly. […] The tumor volume is plotted in FIG. 2 as the mean tumor volume±standard error of the mean (SEM) for all animals in each particular dose group.

[3] = tested on: MCF-7 tumor cells (human breast cancer cell line)
Protocol: Estradiol pellets (1 mg) were implanted interscapularly into twenty female athymic nude mice (NCR-nu/nu, Taconic) mouse. After 24 hours 1×10^7 MCF-7 tumor cells (breast cancer cell line) were implanted in the mammary fat pad of each mouse. The tumors produced by the tumor cell injections were allowed to grow for a period of 10-15 days until the tumors reached a size from 200 to 250 mm^3. The mice were then divided into four test groups (N=5) which were treated every other day by IP injections with: (a) (E)-2-(5-((2,4,6-trimethoxystyrylsulfonyl)methyl)-2-methoxyphenylamino)acetic acid sodium salt (200 mg/kg) dissolved in PBS; (b) doxorubicin (2.5 mg/kg) dissolved in PBS; (c) a combination of (E)-2-(5-((2,4,6-trimethoxystyrylsulfonyl)methyl)-2-methoxyphenylamino)acetic acid sodium salt (200 mg/kg) and doxorubicin (2.5 mg/kg) dissolved in PBS; or (d) PBS vehicle containing no drug. […] Body weights are plotted in FIG. 3(b) as the mean of the measured weights of all the animals in each dose group. Tumor volume was determined by measuring each tumor in two dimensions using traceable digital Vernier calipers. The tumor volume was calculated for each tumor using the equation: V=L×(S^2)π/6. The tumor volume is plotted in FIG. 3(a) as the mean tumor volume all animals in each particular dose group.

[4] = tested on: MCF-7 tumor cells (human breast cancer cell line); assay: Doxorubicin toxicity and lethality in MCF-7 tumor-bearing nude mice (Example 9); assay type: in vivo
Protocol: Estradiol pellets (1 mg) were implanted interscapularly into ten female athymic nude mice (NCR-nu/nu, Taconic) mouse. […] Body weights for the individual animals of group (a) are plotted in FIG. 4(a) and body weights for the individual animals of group (b) are plotted in FIG. 4(b).

[5] = MCF-7 xenograft, IP every other day, Compound A 200 mg/kg, doxorubicin 2.5 mg/kg, alone or combined

| Compound | effect on tumor growth (mean tumor volume) [1] | effect on tumor growth (mean tumor volume) [2] | effect on tumor growth (mean tumor volume) ([1]; sodium salt) | time at which tumors were of comparable volume to control tumors after 28 days ([2]; single agents) | survival of the animals [3, 5] | effect on tumor growth (mean tumor volume) ([3]; MCF-7 xenograft, IP every other day, Compound A 200 mg/kg, doxorubicin 2.5 mg/kg, alone or combined, sodium salt) | effect on tumor growth (mean tumor volume) [3, 5] | tumor size when the animals had died ([3]; doxorubicin 2.5 mg/kg alone, by the 35th day) | animals with major weight loss immediately preceding death ([4]; doxorubicin 1 mg/kg IP every other day alone) | body weight change ([4]; doxorubicin 1 mg/kg IP every other day, alone or with Compound A 200 mg/kg) | survival rate ([4]; doxorubicin 1 mg/kg IP every other day, alone or with Compound A 200 mg/kg, N=5) |
| --- | --- | --- | --- | --- | --- | --- | --- | --- | --- | --- | --- |
| O=C1[O][Pt]2([NH][C@@H]3CCCC[C@H]3[NH]2)[O]C1=O [oxaliplatin] | significant greater reduction in tumor growth; also recorded: slowed the growth of the tumor | significant therapeutic response | – | – | – | – | – | – | – | – | – |
| COc1cc(OC)c(/C=C/S(=O)(=O)Cc2ccc(OC)c(NCC(=O)[O-])c2)c(OC)c1.[Na+] [(E)-2-(5-((2,4,6-trimethoxystyrylsulfonyl)methyl)-2-methoxyphenylamino)acetic acid sodium salt] | – | significant therapeutic response | significant greater reduction in tumor growth; also recorded: slowed the growth of the tumor | 63 days | 84 days | significantly slowed the growth of the tumors; also recorded: comparable reduction in tumor growth | – | – | – | – | – |
| COc1cccc2c1C(=O)c1c(O)c3c(c(O)c1C2=O)C[C@@](O)(C(=O)CO)C[C@@H]3O[C@H]1C[C@H](N)[C@H](O)[C@H](C)O1 [doxorubicin] | – | – | – | – | – | – | significantly slowed the growth of the tumors | 500 mm^3 | 4 of the 5 | initial suggestive weight gain | 20% |
